Test results published in PubChem BioAssay (NCI).
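Five concentrations, 48 hours, 96-well plates. The concentration for 50% growth inhibition is given as GI50. The concentration for full growth arrest is given as TGI.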

Experiments:
Assay in all cases: NCI anticancer screen, dose series, 48 h
786-0 renal = tested on: 786-0 renal
A549 NSCLC = tested on: A549 NSCLC
IGROV1 ovarian = tested on: IGROV1 ovarian
MALME-3M melanoma = tested on: MALME-3M melanoma
MCF7 breast = tested on: MCF7 breast
OVCAR-3 ovarian = tested on: OVCAR-3 ovarian
OVCAR-4 ovarian = tested on: OVCAR-4 ovarian
SK-MEL-2 melanoma = tested on: SK-MEL-2 melanoma
SK-MEL-28 melanoma = tested on: SK-MEL-28 melanoma
CAKI-1 renal = tested on: CAKI-1 renal

Compound | GI50 (786-0 renal) | TGI (786-0 renal) | GI50 (A549 NSCLC) | TGI (A549 NSCLC) | GI50 (IGROV1 ovarian) | TGI (IGROV1 ovarian) | GI50 (MALME-3M melanoma) | TGI (MALME-3M melanoma) | GI50 (MCF7 breast) | TGI (MCF7 breast) | GI50 (OVCAR-3 ovarian) | TGI (OVCAR-3 ovarian) | GI50 (OVCAR-4 ovarian) | TGI (OVCAR-4 ovarian) | GI50 (SK-MEL-2 melanoma) | TGI (SK-MEL-2 melanoma) | GI50 (SK-MEL-28 melanoma) | TGI (SK-MEL-28 melanoma) | TGI (CAKI-1 renal) | GI50 (CAKI-1 renal)
O=c1c2ccccc2oc2ccc(OCCCCCCN3CCCCCC3)cc12 | 1.9 µM | 4.35 µM | 3.51 µM | 11.5 µM | 4.29 µM | 17.5 µM | 1.93 µM | 3.68 µM | 1.91 µM | 5.53 µM | 4.09 µM | 16.1 µM | 3.03 µM | 16.7 µM | 3.05 µM | 9.75 µM | 2.01 µM | 4.58 µM | – | –
Cc1cc([N+](=O)[O-])c(C)c(Br)c1C | – | > 100 µM | – | > 100 µM | – | > 100 µM | – | > 100 µM | – | > 100 µM | – | > 100 µM | – | > 100 µM | – | > 100 µM | – | > 100 µM | > 100 µM | –
COc1ccc(CCc2cc(OC)c(OC)c(OC)c2)cc1 | – | 69.1 µM | – | 88.8 µM | – | > 100 µM | – | 39.1 µM | – | > 100 µM | – | 0.523 µM | – | > 92.5 µM | – | 24.2 µM | – | > 61.3 µM | 20.4 µM | –
Nc1ccc2c(c1)c(N)nn2C(=O)Nc1ccc(Cc2ccccc2)cc1 | 12.4 µM | 25.9 µM | 6.58 µM | 57.1 µM | 16.4 µM | 54.1 µM | 18 µM | 89.8 µM | 6.92 µM | 26.5 µM | 12.1 µM | 28.3 µM | 8.29 µM | 24.1 µM | 26.1 µM | 48.5 µM | 13.7 µM | 27.8 µM | 26.8 µM | 4.3 µM
COc1cc([N+](=O)[O-])c2ncccc2c1[N+](=O)[O-] | 10.7 µM | 23.3 µM | 17.8 µM | 34.5 µM | – | – | – | – | 3.26 µM | 32.1 µM | 2.68 µM | 6.72 µM | 1.82 µM | 3.37 µM | 4.17 µM | 12.3 µM | 13.2 µM | 27.1 µM | 4 µM | 1.65 µM
CCOc1cc(-c2ccc[nH]2)[nH]c1/C=C1\N=C(C)C(C(=O)OC)=C1C | 0.0329 µM | 0.259 µM | 0.0531 µM | 0.58 µM | – | – | 0.216 µM | 4.3 µM | 0.0369 µM | 0.467 µM | 0.0329 µM | 1.04 µM | 0.0449 µM | 1.45 µM | 0.0256 µM | 0.0893 µM | 0.143 µM | 0.9 µM | 0.194 µM | 0.0331 µM
CSc1ccc(C(=O)C(=O)c2ccc(SC)s2)s1 | – | > 10 µM | – | > 10 µM | – | > 10 µM | – | – | – | > 10 µM | – | > 10 µM | – | > 10 µM | – | > 10 µM | – | > 10 µM | > 10 µM | –
O=C(Cc1csc2nc(-c3ccc(Br)cc3)cn12)N/N=C/c1ccc(O)cc1 | 26.1 µM | 89 µM | 10.6 µM | 33.7 µM | 10.6 µM | 39.7 µM | – | – | 62.7 µM | > 100 µM | 24.2 µM | 49.4 µM | > 100 µM | > 100 µM | 26.1 µM | 95.9 µM | 60 µM | > 100 µM | 49.3 µM | 14.9 µM
CC(=O)Oc1ccc2c(c1)CC[C@@H]1C2CC[C@]2(C)C(=O)NC(=O)CC12 (some centres not stated) | – | > 100 µM | – | > 100 µM | – | > 100 µM | – | > 100 µM | – | > 100 µM | – | > 100 µM | – | > 100 µM | – | – | – | > 100 µM | > 100 µM | –
CSC1=NCC2(S1)c1ccccc1N(C(=O)OC(C)(C)C)C2N1CCCCC1 (configuration not stated) | 16.2 µM | > 100 µM | > 100 µM | > 100 µM | > 100 µM | > 100 µM | 15.3 µM | > 100 µM | > 100 µM | > 100 µM | – | – | > 100 µM | > 100 µM | > 100 µM | > 100 µM | > 100 µM | > 100 µM | – | –
OCNCCNc1nc2ccccc2c2[nH]c3ccccc3c12 | 0.34 µM | 2.35 µM | – | – | 1.14 µM | 7.31 µM | – | – | 1.24 µM | 4.5 µM | 1.31 µM | 3.67 µM | – | – | 2.25 µM | 24 µM | 1.01 µM | 6.84 µM | 7.38 µM | 2.01 µM
CN1CCN(c2nc(-c3ccncc3)nc3sc4c(c23)CCCCCC4)CC1 | 4.77 µM | 20.2 µM | 11.4 µM | 25.3 µM | 8.16 µM | 22 µM | – | – | 6.61 µM | 20.4 µM | 13.5 µM | 27 µM | 12.7 µM | 28 µM | 14.6 µM | 28.2 µM | 12.5 µM | 25.1 µM | 19.4 µM | 3.44 µM
CC(=O)OC1CC2C(=O)C(=O)C1(C)C2(C)C (configuration not stated) | – | > 100 µM | – | > 100 µM | – | > 100 µM | – | > 100 µM | – | > 100 µM | – | > 100 µM | – | > 100 µM | – | – | – | > 100 µM | – | –
C#CCN(Cc1ccc2nc(N)[nH]c(=O)c2c1)c1ccc(C(=O)NC(CCC(=O)O)C(=O)O)cc1 (configuration not stated) | – | > 100 µM | – | > 100 µM | – | > 100 µM | – | > 100 µM | – | > 100 µM | – | > 100 µM | – | – | – | – | – | > 100 µM | > 100 µM | –
COc1ccc(CCN=C2CCC(C(=O)NCCc3ccc(OC)c(OC)c3)N2)cc1OC (configuration not stated) | – | > 100 µM | – | > 100 µM | – | > 100 µM | – | > 100 µM | – | – | – | > 100 µM | – | > 100 µM | – | > 100 µM | – | > 100 µM | > 100 µM | –
O=C1CN(/N=C/c2ccc(-c3ccc(F)cc3)o2)C(=O)N1 | – | > 100 µM | – | > 100 µM | – | > 100 µM | – | > 100 µM | – | > 100 µM | – | > 100 µM | – | – | – | > 100 µM | – | 83.6 µM | > 100 µM | –
CCN(CC)CCN(C(=O)C(C)(C)C)c1ccccc1N | – | > 100 µM | – | > 100 µM | – | > 100 µM | – | > 100 µM | – | > 100 µM | – | > 100 µM | – | > 100 µM | – | – | – | > 100 µM | > 100 µM | –
C[C@]12CC[C@H](OC3CCCCO3)CC1=CC[C@@H]1C2CC[C@]2(C)/C(=N/O)CCC12 (some centres not stated) | – | 55.8 µM | – | 34.9 µM | – | > 100 µM | – | 80.4 µM | – | – | – | 31.1 µM | – | 39 µM | – | 89.7 µM | – | 54.3 µM | > 100 µM | –
CNC(=O)CN(CC(N)=O)C(N)=O | – | > 100 µM | – | > 100 µM | – | > 100 µM | – | > 100 µM | – | – | – | > 100 µM | – | > 100 µM | – | > 100 µM | – | > 100 µM | > 100 µM | –
